Measurements as given in US10273251B2, “Composition, cured film, near infrared ray absorption filter, solid-state imaging device, infrared sensor, and compound” (FUJIFILM Corporation, priority 2014, dated 2019).

Experiments:
Format in all cases: physicochemical
[1] = Solubility of the compound to propylene glycol monomethyl ether acetate; conditions: visually observed
Source text: Solubility of the compound to propylene glycol monomethyl ether acetate was visually observed.

[2] = Heat resistance of near infrared ray absorption filter (ΔEab before/after heating); conditions: filter 1.0 μm, 7.5 mass % compound; 260° C. for 30 minutes on hot plate; ΔEab class
Experimental: (§1) Compositions below were mixed so as to prepare the composition. A solid content of the composition is 31 mass % and a content of the near infrared ray absorption substance with respect to the total solid content of the composition was 7.5 mass %.
(§2) Glass substrates (1737 manufactured by Corning Incorporated) were coated with respective compositions by using a spin coater such that film thicknesses after drying become 1.0 μm, and a heating treatment (prebaking) was performed for 120 seconds by using a hot plate of 100° C.
(§3) Subsequently, beta exposure was performed by 500 mJ/cm^2 by using an i-ray stepper exposure device FPA-3000i5+ (manufactured by Canon Inc.). Subsequently, puddle development was performed at 23° C. for 60 seconds by using CD-2060 (manufactured by Fujifilm Electronic Materials), a rinse treatment was performed with pure water on a glass substrate on which a beta coloration layer was formed, and spray drying was performed.
(§4) The heating treatment (post baking) was performed for 300 seconds by using a hot plate of 200° C., so as to obtain a near infrared ray absorption filter.
After the near infrared ray absorption filter was heated to 260° C. for 30 minutes by a hot plate, the ΔEab value of a color difference before and after heat resistance test was measured using a color meter MCPD-1000 (manufactured by Otsuka Electronics Co., Ltd.), so as to evaluate a criterion below. A smaller ΔEab value indicates more satisfactory heat resistance.

[3] = Light fastness of near infrared ray absorption filter (ΔEab before/after xenon lamp); conditions: filter 1.0 μm, 7.5 mass % compound; xenon lamp 50,000 lux for 20 hours; ΔEab class
Experimental: as §1, §2, §3, §4
After the near infrared ray absorption filter was irradiated with a xenon lamp was applied by 50,000 lux for 20 hours (corresponding to 1,000,000 lux·h), an ΔEab value of a color difference before and after a light-fast test was measured. A smaller ΔEab value indicates more satisfactory light fastness.
The ΔEab value is a value obtained from a color difference equation below according to a CIE 1976 (L*, a*, b*) space color system (Handbook of Color Science, New Edition, edited by the Color Science Association of Japan, (1985), p. 266). ΔEab={(ΔL*)^2[…](Δa*)^2+(Δb*)^2}^1/2

[4] = Evaluation of maximum absorption wavelength, half-width and absorbance ratio (liquid absorption spectrum); conditions: 2.5×10^−6 mol/L, optical path length 10 mm
Experimental: —Evaluation of Maximum Absorption Wavelength, Half-Width, and Absorbance Ratio—Respective compounds were dissolved in measuring solvents (concentration: 2.5×10^−6 mol/L) described in the table below so as to measure an absorption spectrum (Optical path length: 10 mm).
Maximum absorption wavelengths (λmax) of absorption spectrums, half-widths of the maximum absorption wavelengths, and absorbance ratios (550 nm/λmax) which are values obtained by dividing absorbance at a wavelength of […] by absorbance at the maximum absorption wavelength with respect to respective compounds are presented in Table 1 below. FIG. 3 illustrates an absorption spectrum of the compound D-1 in chloroform.

[5] = as above; conditions: 2.5×10^−6 mol/L, optical path length 10 mm; remark: listed apart in the source
[6] = measuring solvent ethyl acetate
[7] = measuring solvent tetrahydrofuran

SMILES	Solubility [1]	Heat resistance [2]	Light fastness [3]	Half-width ([4]; measuring solvent chloroform)	Maximum absorption wavelength ([4]; measuring solvent chloroform)	Absorbance ratio (550 nm/λmax) ([5]; measuring solvent chloroform)	Half-width [4, 6]	Maximum absorption wavelength [4, 6]	Half-width [4, 7]	Maximum absorption wavelength [4, 7]	Absorbance ratio (550 nm/λmax) [5, 6]	Absorbance ratio (550 nm/λmax) [5, 7]
CCCCCCCCCCCCCCCCCCOc1cccc(-c2c3/c(=C(\C#N)c4nc5ccccc5s4)n(B(c4ccccc4)c4ccccc4)c(-c4cccc(OCCCCCCCCCCCCCCCCCC)c4)c3/c(=C(\C#N)c3nc4ccccc4s3)n2B(c2ccccc2)c2ccccc2)c1 [Compound D-11]	B (Solubility 0.5% or greater and less than 2%)	5 (ΔEab value<3)	5 (ΔEab value<3)	30 nm	779 nm	0.009						
COCCOCCOc1cccc(-c2c3/c(=C(\C#N)c4cnc5cc(Cl)c(Cl)cc5n4)n(B(c4ccccc4)c4ccccc4)c(-c4cccc(OCCOCCOC)c4)c3/c(=C(\C#N)c3cnc4cc(Cl)c(Cl)cc4n3)n2B(c2ccccc2)c2ccccc2)c1 [Compound D-4]	B (Solubility 0.5% or greater and less than 2%)	4 (3≤ΔEab value<5)	5 (ΔEab value<3)	29 nm	883 nm	0.012						
CCCCCCCCC(CCCCCC)COc1cccc(-c2c3/c(=C(\C#N)c4cnc5cc(Cl)c(Cl)cc5n4)n(B(c4ccccc4)c4ccccc4)c(-c4cccc(OCC(CCCCCC)CCCCCCCC)c4)c3/c(=C(\C#N)c3cnc4cc(Cl)c(Cl)cc4n3)n2B(c2ccccc2)c2ccccc2)c1 [Compound D-1]	A (Solubility 2% or greater)	5 (ΔEab value<3)	5 (ΔEab value<3)	29 nm	884 nm	0.011	30 nm	880 nm	29 nm	884 nm	0.011	0.01
CCC(C)COc1cccc(-c2c3/c(=C(\C#N)c4cnc5ccccc5n4)n(B(c4ccccc4)c4ccccc4)c(-c4cccc(OCC(C)CC)c4)c3/c(=C(\C#N)c3cnc4ccccc4n3)n2B(c2ccccc2)c2ccccc2)c1 [Compound D-7]	A (Solubility 2% or greater)	5 (ΔEab value<3)	5 (ΔEab value<3)	29 nm	863 nm	0.013						
Cc1cc2ncc(/C(C#N)=c3/c4c(-c5cccc(OCC(CCC(C)CC(C)(C)C)C(C)CC(C)(C)C)c5)n(B(c5ccccc5)c5ccccc5)/c(=C(/C#N)c5cnc6cc(C)c(C)cc6n5)c4c(-c4cccc(OCC(CCC(C)CC(C)(C)C)C(C)CC(C)(C)C)c4)n3B(c3ccccc3)c3ccccc3)nc2cc1C [Compound D-6]	A (Solubility 2% or greater)	5 (ΔEab value<3)	5 (ΔEab value<3)	32 nm	872 nm	0.01						
CCCCCCCCC(CCCCCCCC)COc1cccc(-c2c3/c(=C(\C#N)c4cnc5cc(C)ccc5n4)n(B(c4ccccc4)c4ccccc4)c(-c4cccc(OCC(CCCCCCCC)CCCCCCCC)c4)c3/c(=C(\C#N)c3cnc4cc(C)ccc4n3)n2B(c2ccccc2)c2ccccc2)c1 [Compound D-8]	A (Solubility 2% or greater)	5 (ΔEab value<3)	5 (ΔEab value<3)	31 nm	866 nm	0.01						
CCCCCCCC/C=C\CCCCCCCCOc1cccc(-c2c3/c(=C(\C#N)c4cnc5cc(Cl)c(Cl)cc5n4)n(B(c4ccccc4)c4ccccc4)c(-c4cccc(OCCCCCCCC/C=C\CCCCCCCC)c4)c3/c(=C(\C#N)c3cnc4cc(Cl)c(Cl)cc4n3)n2B(c2ccccc2)c2ccccc2)c1 [Compound D-5]	B (Solubility 0.5% or greater and less than 2%)	5 (ΔEab value<3)	5 (ΔEab value<3)	29 nm	884 nm	0.01						

Next, values leading:

Solubility [1]	Heat resistance [2]	Light fastness [3]	Half-width ([4]; measuring solvent chloroform)	Maximum absorption wavelength ([4]; measuring solvent chloroform)	Absorbance ratio (550 nm/λmax) ([5]; measuring solvent chloroform)	Half-width [4, 6]	Maximum absorption wavelength [4, 6]	Half-width [4, 7]	Maximum absorption wavelength [4, 7]	Absorbance ratio (550 nm/λmax) [5, 6]	Absorbance ratio (550 nm/λmax) [5, 7]	SMILES
A (Solubility 2% or greater)	5 (ΔEab value<3)	5 (ΔEab value<3)	30 nm	748 nm	0.003							COc1ccc2oc(/C(C#N)=c3/c4c(-c5cccc(OCC(CCC(C)CC(C)(C)C)C(C)CC(C)(C)C)c5)n(B(c5ccccc5)c5ccccc5)/c(=C(/C#N)c5nc6cc(C)ccc6o5)c4c(-c4cccc(OCC(CCC(C)CC(C)(C)C)C(C)CC(C)(C)C)c4)n3B(c3ccccc3)c3ccccc3)nc2c1 [Compound D-43]
A (Solubility 2% or greater)	5 (ΔEab value<3)	5 (ΔEab value<3)	29 nm	863 nm	0.006							CC(CCC(COc1cccc(-c2c3/c(=C(\C#N)c4cnc5ccccc5n4)n(B(c4ccccc4)c4ccccc4)c(-c4cccc(OCC(CCC(C)CC(C)(C)C)C(C)CC(C)(C)C)c4)c3/c(=C(\C#N)c3cnc4ccccc4n3)n2B(c2ccccc2)c2ccccc2)c1)C(C)CC(C)(C)C)CC(C)(C)C [Compound D-28]
A (Solubility 2% or greater)	5 (ΔEab value<3)	5 (ΔEab value<3)	28 nm	862 nm	0.006							CCCCCCCCCCC(CCCCCCCC)COc1cccc(-c2c3/c(=C(\C#N)c4cnc5ccccc5n4)n(B(c4ccccc4)c4ccccc4)c(-c4cccc(OCC(CCCCCCCC)CCCCCCCCCC)c4)c3/c(=C(\C#N)c3cnc4ccccc4n3)n2B(c2ccccc2)c2ccccc2)c1 [Compound D-29]
A (Solubility 2% or greater)	5 (ΔEab value<3)	5 (ΔEab value<3)	28 nm	884 nm	0.01							CC(CCC(COc1cccc(-c2c3/c(=C(\C#N)c4cnc5cc(Cl)c(Cl)cc5n4)n(B(c4ccccc4)c4ccccc4)c(-c4cccc(OCC(CCC(C)CC(C)(C)C)C(C)CC(C)(C)C)c4)c3/c(=C(\C#N)c3cnc4cc(Cl)c(Cl)cc4n3)n2B(c2ccccc2)c2ccccc2)c1)C(C)CC(C)(C)C)CC(C)(C)C [Compound D-32]
C (Solubility less than 0.5%)	5 (ΔEab value<3)	5 (ΔEab value<3)	31 nm	884 nm	0.019							CCCCCCCCC(CCCCCC)COc1ccc(-c2c3/c(=C(\C#N)c4cnc5cc(Cl)c(Cl)cc5n4)n(B(c4ccccc4)c4ccccc4)c(-c4ccc(OCC(CCCCCC)CCCCCCCC)cc4)c3/c(=C(\C#N)c3cnc4cc(Cl)c(Cl)cc4n3)n2B(c2ccccc2)c2ccccc2)cc1 (stereo not drawn) [Compound E-1, reference compound]
A (Solubility 2% or greater)	5 (ΔEab value<3)	5 (ΔEab value<3)	30 nm	814 nm	0.01							CCCCC(CC)COc1cccc(-c2c3/c(=C(\C#N)c4ccc5ccccc5n4)n(B(c4ccccc4)c4ccccc4)c(-c4cccc(OCC(CC)CCCC)c4)c3/c(=C(\C#N)c3ccc4ccccc4n3)n2B(c2ccccc2)c2ccccc2)c1 [Compound D-10]
A (Solubility 2% or greater)	5 (ΔEab value<3)	5 (ΔEab value<3)	28 nm	884 nm	0.01							CCCCCCCCCCC(CCCCCCCC)COc1cccc(-c2c3/c(=C(\C#N)c4cnc5cc(Cl)c(Cl)cc5n4)n(B(c4ccccc4)c4ccccc4)c(-c4cccc(OCC(CCCCCCCC)CCCCCCCCCC)c4)c3/c(=C(\C#N)c3cnc4cc(Cl)c(Cl)cc4n3)n2B(c2ccccc2)c2ccccc2)c1 [Compound D-31]
